From ChEMBL document CHEMBL1125459, “Synthesis and biological activity of 8a-phenyldecahydroquinolines as probes of PCP's binding conformation. A new PCP-like compound with increased in vivo potency” (J Med Chem, 1992) come the findings set out here.

The nature of experiment [1]: Compound was evaluated for its affinity towards NMDA receptor in male Swiss Webster mice.
A short description of experiment [2]: Compound was evaluated for its affinity towards N-methyl-D-aspartate glutamate receptor in male Swiss Webster mice.
A further experiment deals with Mus musculus. As to the kind of experiment: Compound was evaluated in vivo for effective dose by subcutaneous administration in mice using cGMP assay. The note with it: sc. The class given is functional.

For `c1ccc([C@@]23CCCC[C@@H]2CCCN3)cc1`, 0.159 µM corresponded to half-maximal inhibition in experiment [1] (IC50).
On to `c1ccc([C@]23CCCC[C@H]2CCCN3)cc1`, for which the IC50 (usually the concentration needed to halve the response being measured) in experiment [2] was 0.467 µM.
For `c1ccc([C@@]23CCCC[C@H]2CCCN3)cc1`, the ED50 (as a rule, the midpoint of the dose-response relation) with Mus musculus was 0.16 mg/kg. The same compound registered an IC50 in experiment [2] of 0.0663 µM.
In the case of `c1ccc([C@]23CCCC[C@@H]2CCCN3)cc1`, half-maximal inhibition in experiment [1] (IC50) required 0.0946 µM.
In the experiment on Mus musculus, `C[C@]12N[C@H](Cc3ccccc31)c1ccccc12` [DIZOCILPINE] had an ED50 of 0.3 mg/kg. In experiment [2], this compound gave an IC50 of 0.0014 µM.
Consider `c1ccc(C2(N3CCCCC3)CCCCC2)cc1` [PHENCYCLIDINE], for which the IC50 in experiment [2] is 0.035 µM.
